Source: PubChem BioAssay (NCI)
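These data come from cells grown in 96-well plates and exposed to compound for 48 hours at five concentrations. The concentration for full growth arrest is given as TGI.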

Assays:
Assay in all cases: NCI anticancer screen, dose series, 48 h
786-0 renal = test system: 786-0 renal
SNB-75 CNS = test system: SNB-75 CNS
PC-3 prostate = test system: PC-3 prostate
OVCAR-5 ovarian = test system: OVCAR-5 ovarian
LOX IMVI melanoma = test system: LOX IMVI melanoma
MCF7 breast = test system: MCF7 breast
HCC-2998 colon = test system: HCC-2998 colon
SF-295 CNS = test system: SF-295 CNS
SN12C renal = test system: SN12C renal
BT-549 breast = test system: BT-549 breast
NCI-H460 lung = test system: NCI-H460 lung
SK-OV-3 ovarian = test system: SK-OV-3 ovarian
UACC-62 melanoma = test system: UACC-62 melanoma
NCI-H226 lung = test system: NCI-H226 lung
SF-539 CNS = test system: SF-539 CNS
HS 578T breast = test system: HS 578T breast
MALME-3M melanoma = test system: MALME-3M melanoma
TK-10 renal = test system: TK-10 renal
HL-60(TB) leukemia = test system: HL-60(TB) leukemia
CAKI-1 renal = test system: CAKI-1 renal
HOP-92 NSCLC = test system: HOP-92 NSCLC
SNB-19 CNS = test system: SNB-19 CNS
OVCAR-8 ovarian = test system: OVCAR-8 ovarian
M14 melanoma = test system: M14 melanoma
CCRF-CEM leukemia = test system: CCRF-CEM leukemia
K-562 leukemia = test system: K-562 leukemia
NCI/ADR-RES ovarian = test system: NCI/ADR-RES ovarian
SK-MEL-2 melanoma = test system: SK-MEL-2 melanoma
HT29 colon = test system: HT29 colon
IGROV1 ovarian = test system: IGROV1 ovarian
A549 NSCLC = test system: A549 NSCLC
MDA-MB-231 breast = test system: MDA-MB-231 breast
SF-268 CNS = test system: SF-268 CNS
U251 CNS = test system: U251 CNS
HOP-62 NSCLC = test system: HOP-62 NSCLC
T-47D breast = test system: T-47D breast
KM12 colon = test system: KM12 colon
SR leukemia = test system: SR leukemia
NCI-H23 lung = test system: NCI-H23 lung
RXF 393 renal = test system: RXF 393 renal
MDA-MB-435 = test system: MDA-MB-435
HCT-116 colon = test system: HCT-116 colon
SW-620 colon = test system: SW-620 colon
OVCAR-4 ovarian = test system: OVCAR-4 ovarian
ACHN renal = test system: ACHN renal
COLO 205 colon = test system: COLO 205 colon
OVCAR-3 ovarian = test system: OVCAR-3 ovarian
RPMI-8226 leukemia = test system: RPMI-8226 leukemia
UACC-257 melanoma = test system: UACC-257 melanoma
SK-MEL-5 melanoma = test system: SK-MEL-5 melanoma
DU-145 prostate = test system: DU-145 prostate
EKVX NSCLC = test system: EKVX NSCLC
UO-31 renal = test system: UO-31 renal
MOLT-4 leukemia = test system: MOLT-4 leukemia
SK-MEL-28 melanoma = test system: SK-MEL-28 melanoma
NCI-H522 lung = test system: NCI-H522 lung
HCT-15 colon = test system: HCT-15 colon
A498 renal = test system: A498 renal

How did the TGI (786-0 renal) turn out when O=C1C(Cl)=C(Sc2nnc3c4ccccc4c4ccccc4c3n2)C(=O)c2ccccc21 was run?
The TGI was 33.9 µM.

And the TGI (SNB-75 CNS)?
Its TGI is 8.77 µM.

And the TGI (PC-3 prostate)?
Its TGI is 46.4 µM.

What about the TGI (OVCAR-5 ovarian) of the same compound?
Its TGI is 45.3 µM.

And the TGI (LOX IMVI melanoma)?
Its TGI is 17.2 µM.

And the TGI (MCF7 breast)?
Its TGI is 28.2 µM.

And the TGI (HCC-2998 colon)?
Its TGI is 94.2 µM.

And the TGI (SF-295 CNS)?
Its TGI is 23.3 µM.

What about the TGI (SN12C renal) of the same compound?
Its TGI is 33.1 µM.

And the TGI (BT-549 breast)?
The TGI was 32.2 µM.

And the TGI (NCI-H460 lung)?
Its TGI is 37 µM.

What about the TGI (SK-OV-3 ovarian) of the same compound?
Its TGI is 55.3 µM.

What about the TGI (UACC-62 melanoma) of the same compound?
The TGI was 29.8 µM.

What about the TGI (NCI-H226 lung) of the same compound?
The TGI was 40.9 µM.

And the TGI (SF-539 CNS)?
Its TGI is 32.4 µM.

What about the TGI (HS 578T breast) of the same compound?
The TGI was over 100 µM.

What about the TGI (MALME-3M melanoma) of the same compound?
The TGI was 11.6 µM.

And the TGI (TK-10 renal)?
Its TGI is 37.4 µM.

And the TGI (HL-60(TB) leukemia)?
The TGI was 7.59 µM.

What about the TGI (CAKI-1 renal) of the same compound?
The TGI was 31.9 µM.

And the TGI (HOP-92 NSCLC)?
Its TGI is 33.2 µM.

What about the TGI (SNB-19 CNS) of the same compound?
Its TGI is 36.6 µM.

And the TGI (OVCAR-8 ovarian)?
Its TGI is 29.6 µM.

And the TGI (M14 melanoma)?
Its TGI is 35 µM.

What about the TGI (CCRF-CEM leukemia) of the same compound?
The TGI was 14.5 µM.

What about the TGI (K-562 leukemia) of the same compound?
The TGI was over 59.3 µM.

What about the TGI (NCI/ADR-RES ovarian) of the same compound?
The TGI was over 86.3 µM.

What about the TGI (SK-MEL-2 melanoma) of the same compound?
The TGI was 34.8 µM.

What about the TGI (HT29 colon) of the same compound?
Its TGI is 62 µM.

And the TGI (IGROV1 ovarian)?
The TGI was 21.2 µM.

And the TGI (A549 NSCLC)?
The TGI was 71.4 µM.

What about the TGI (MDA-MB-231 breast) of the same compound?
The TGI was 17 µM.

And the TGI (SF-268 CNS)?
Its TGI is 90.6 µM.

And the TGI (U251 CNS)?
Its TGI is 28.4 µM.

What about the TGI (HOP-62 NSCLC) of the same compound?
The TGI was 32 µM.

And the TGI (T-47D breast)?
Its TGI is 19.2 µM.

What about the TGI (KM12 colon) of the same compound?
The TGI was 30.7 µM.

What about the TGI (SR leukemia) of the same compound?
The TGI was over 56 µM.

And the TGI (NCI-H23 lung)?
The TGI was 19.4 µM.

What about the TGI (RXF 393 renal) of the same compound?
The TGI was 32 µM.

What about the TGI (MDA-MB-435) of the same compound?
The TGI was 3.41 µM.

And the TGI (HCT-116 colon)?
Its TGI is 33.3 µM.

And the TGI (SW-620 colon)?
Its TGI is over 65.1 µM.

And the TGI (OVCAR-4 ovarian)?
Its TGI is 29.2 µM.

What about the TGI (ACHN renal) of the same compound?
Its TGI is 29.5 µM.

What about the TGI (COLO 205 colon) of the same compound?
The TGI was 38.9 µM.

And the TGI (OVCAR-3 ovarian)?
The TGI was 27.2 µM.

And the TGI (RPMI-8226 leukemia)?
The TGI was 39.1 µM.

What about the TGI (UACC-257 melanoma) of the same compound?
The TGI was 30 µM.

And the TGI (SK-MEL-5 melanoma)?
The TGI was 22.4 µM.

And the TGI (DU-145 prostate)?
Its TGI is 22 µM.

And the TGI (EKVX NSCLC)?
The TGI was 37.7 µM.

And the TGI (UO-31 renal)?
Its TGI is 28.4 µM.

What about the TGI (MOLT-4 leukemia) of the same compound?
Its TGI is 34.4 µM.

And the TGI (SK-MEL-28 melanoma)?
The TGI was 39.6 µM.

And the TGI (NCI-H522 lung)?
Its TGI is 57.7 µM.

And the TGI (HCT-15 colon)?
Its TGI is 42.8 µM.

And the TGI (A498 renal)?
The TGI was 37.2 µM.
